According to US20020137929A1, “1 - (3-heterocyclylphenyl) isothiourea, -isourea, -guanidine and -amidine herbicidal agents” (Intellectual Property Department, BASF Aktiengesellschaft, priority 1998, published 2002):

Key:
AMBEL (Ragweed, Common) = experiment: Postemergence herbicidal evaluation; format: in vivo, Ambrosia artemisifolia; settings: postemergence
Procedure, shortened: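 Each compound, dispersed in an acetone/water mix (50/50) carrying 0.5% TWEEN 20, is nozzle-sprayed at 40 psi on approximately two-week-old seedlings at about 0.0156–0.500 kg/ha. Plants are assessed 4–5 weeks afterward on a 0–9 scale relative to control; duplicate tests are averaged.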

CASOB (Sicklepod) [1] = experiment: Postemergence herbicidal evaluation; format: in vivo, Cassia obtusifolia; settings: postemergence
Procedure: (§1) In the tests, seedling plants are grown in jiffy flats for about two weeks. The test compounds are dispersed in 50/50 acetone/water mixtures containing 0.5% TWEEN®20, a polyoxyethylene sorbitan monolaurate surfactant of Atlas Chemical Industries, in sufficient quantities to provide the equivalent of about 0.0156 kg to 0.500 kg per hectare of active compound when applied to the plants through a spray nozzle operating at 40 psi for a predetermined time. After spraying, the plants are placed on greenhouse benches and are cared for in accordance with conventional greenhouse procedures. From four to five weeks after treatment, the seedling plants are examined and rated according to the rating system set forth below. Where more than one test is involved for a given compound, the data are averaged.
(§2) Plant species employed in these evaluations are reported by header abbreviation, common name and scientific name.
(§3) Results of herbicide evaluation are expressed on a rating scale (0-9). The scale is based upon a visual observation of plant stand, vigor, malformation, size, chlorosis and overall plant appearance as compared with a control.

GALAP (Galium) = experiment: Postemergence herbicidal evaluation; format: in vivo, Galium aparine; settings: postemergence
Procedure: as §1, §2, §3

[2] = tested on: IPOHE (Morningglory, Ivyleaf); experiment: Postemergence herbicidal evaluation; format: in vivo, Ipomoea hederacea; settings: postemergence
Procedure: as §1, §2, §3

ABUTH (Velvetleaf) = experiment: Preemergence herbicidal evaluation; format: in vivo, Abutilon theophrasti; settings: rated 4-5 weeks after treatment
Text: as §3
(§4) The preemergence herbicidal activity of the test compounds of the present invention is exemplified by the following tests in which the seeds of a variety of monocotyledonous and dicotyledonous plants are separately mixed with potting soil and planted on top of approximately one inch of soil in separate pint cups. After planting, the cups are sprayed with the selected aqueous acetone solution containing test compound in sufficient quantity to provide the equivalent of about 0.0156 to 0.500 kg per hectare of test compound per cup. The treated cups are then placed on greenhouse benches, watered and cared for in accordance with conventional greenhouse procedures. From four to five weeks after treatment, the tests are terminated and each cup is examined and rated according to the rating system provided in Example 37.
(§5) The compounds evaluated are reported by compound number given in Example 37.

CASOB (Sicklepod) [3] = experiment: Preemergence herbicidal evaluation; format: in vivo, Cassia obtusifolia; settings: rated 4-5 weeks after treatment
Text: as §3, §4, §5

[4] = tested on: IPOHE (Morningglory, Ivyleaf); experiment: Preemergence herbicidal evaluation; format: in vivo, Ipomoea hederacea; settings: rated 4-5 weeks after treatment
Text: as §3, §4, §5

ECHCG (Barnyardgrass) = experiment: Preemergence herbicidal evaluation; format: in vivo, Echinochloa crus-galli; settings: rated 4-5 weeks after treatment
Text: as §3, §4, §5

[5] = tested on: GLXMAW (Soybean, Williams); experiment: Preemergence herbicidal evaluation; format: in vivo, Glycine max, (L.) Merr. cv Williams; settings: rated 4-5 weeks after treatment
Text: as §3, §4, §5

[6] = tested on: TRZAWR (Wheat, Winter, cv Riband); experiment: Preemergence herbicidal evaluation; format: in vivo, Triticum aestivum; settings: rated 4-5 weeks after treatment
Text: as §3, §4, §5

ZEAMX (Corn, Field) = experiment: Preemergence herbicidal evaluation; format: in vivo, Zea mays; settings: rated 4-5 weeks after treatment
Text: as §3, §4, §5

MOOVA (Monochoria) = experiment: Preemergence weed control under flooded paddy conditions; format: in vivo, Monochoria vaginalis; settings: rated 3-4 weeks after treatment
Procedure: as §3
Preemergence herbicidal activity under flooded paddy conditions is determined as follows: plant seeds or propagating organs are planted in the top 0.5 cm of silt loam soil in 32 oz. plastic containers with a diameter of 10.5 cm and no drainage holes. Water is added to these containers and maintained at 1.5 to 3 cm above the soil surface for the duration of the experiment. The test compounds are applied as aqueous/acetone mixtures 50/50 v/v pipetted directly into the flood water to give the equivalent of about 0.0313 to 0.500 kg/ha of active ingredient. The treated containers are placed on greenhouse benches and cared for in accordance with conventional greenhouse procedures. Three to four weeks after treatment, the test is terminated and each container is examined and herbicidal effect rated according to the rating system provided in Example 37. The compounds evaluated are reported by compound number given in Example 37.
Plant species employed in this example are reported by header abbreviation, common name and scientific name.

[7] = tested on: SAGPY (Arrowhead (Pygmaea)); experiment: as above; format: in vivo, Sagittaria pygmaea; settings: rated 3-4 weeks after treatment
Procedure, shortened: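 Visual injury scored 0-9 against control three to four weeks post-treatment, greenhouse-grown. Application: acetone/water (50/50) solutions dosed directly into flood water (1.5-3 cm over silt loam, planted top 0.5 cm), roughly 0.0313 to 0.500 kg/ha active ingredient.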

CCOC(=O)CN1C(=O)C(C(=O)OC(C)(C)C)SC1=Nc1cc(-n2c(=O)cc(C(F)(F)F)n(C)c2=O)c(F)cc1Cl (centres unmarked) [Compound 167, 5-Carboxy-2-{{2-chloro-5-[3,6-dihydro-3-methyl-2,6-dioxo-4-(trifluoromethyl)-1(2H)-pyrimidinyl]-4-fluorophenyl}imino}-4-oxo-3-thiazolidineacetic acid, 5-tert-butyl ethyl ester]
6.0: Preemergence herbicidal rating ECHCG (ECHCG (Barnyardgrass); 0.0625 kg/ha) | Preemergence herbicidal rating ZEAMX (ZEAMX (Corn, Field); 0.2500 kg/ha) | herbicidal effect rating, SAGPY ([7]; 0.1250 kg/ha)
9.0: Herbicidal rating AMBEL (AMBEL (Ragweed, Common); rate 0.0625 kg/ha) | Herbicidal rating IPOHE ([2]; rate 0.0156 kg/ha) | Herbicidal rating IPOHE ([2]; rate 0.0313 kg/ha) | Herbicidal rating IPOHE ([2]; rate 0.0625 kg/ha) | Herbicidal rating IPOHE ([2]; rate 0.1250 kg/ha) | Preemergence herbicidal rating ABUTH (ABUTH (Velvetleaf); 0.0625 kg/ha) | Preemergence herbicidal rating ABUTH (ABUTH (Velvetleaf); 0.1250 kg/ha) | Preemergence herbicidal rating ABUTH (ABUTH (Velvetleaf); 0.2500 kg/ha) | Preemergence herbicidal rating ABUTH (ABUTH (Velvetleaf); 0.5000 kg/ha) | Preemergence herbicidal rating CASOB (CASOB (Sicklepod) [3]; 0.5000 kg/ha) | Preemergence herbicidal rating IPOHE ([4]; 0.2500 kg/ha) | Preemergence herbicidal rating IPOHE ([4]; 0.5000 kg/ha) | Preemergence herbicidal rating ECHCG (ECHCG (Barnyardgrass); 0.1250 kg/ha) | Preemergence herbicidal rating ECHCG (ECHCG (Barnyardgrass); 0.2500 kg/ha) | herbicidal effect rating, MOOVA (MOOVA (Monochoria); 0.0313 kg/ha) | herbicidal effect rating, MOOVA (MOOVA (Monochoria); 0.0625 kg/ha) | herbicidal effect rating, MOOVA (MOOVA (Monochoria); 0.1250 kg/ha) | herbicidal effect rating, MOOVA (MOOVA (Monochoria); 0.2500 kg/ha)
0.0: Preemergence herbicidal rating ABUTH (ABUTH (Velvetleaf); 0.0313 kg/ha) | Preemergence herbicidal rating CASOB (CASOB (Sicklepod) [3]; 0.0156 kg/ha) | Preemergence herbicidal rating CASOB (CASOB (Sicklepod) [3]; 0.0313 kg/ha) | Preemergence herbicidal rating IPOHE ([4]; 0.0156 kg/ha) | Preemergence herbicidal rating IPOHE ([4]; 0.0313 kg/ha) | Preemergence herbicidal rating ECHCG (ECHCG (Barnyardgrass); 0.0156 kg/ha) | Preemergence herbicidal rating ECHCG (ECHCG (Barnyardgrass); 0.0313 kg/ha) | Preemergence herbicidal rating GLXMAW ([5]; 0.0313 kg/ha) | Preemergence herbicidal rating GLXMAW ([5]; 0.0625 kg/ha) | Preemergence herbicidal rating TRZAWR ([6]; 0.0156 kg/ha) | Preemergence herbicidal rating TRZAWR ([6]; 0.0313 kg/ha) | Preemergence herbicidal rating ZEAMX (ZEAMX (Corn, Field); 0.0156 kg/ha) | Preemergence herbicidal rating ZEAMX (ZEAMX (Corn, Field); 0.0313 kg/ha)
7.0: Herbicidal rating AMBEL (AMBEL (Ragweed, Common); rate 0.0313 kg/ha) | Herbicidal rating AMBEL (AMBEL (Ragweed, Common); rate 0.1250 kg/ha) | Preemergence herbicidal rating GLXMAW ([5]; 0.5000 kg/ha) | Preemergence herbicidal rating ZEAMX (ZEAMX (Corn, Field); 0.5000 kg/ha) | herbicidal effect rating, SAGPY ([7]; 0.2500 kg/ha)
1.0: Herbicidal rating CASOB (CASOB (Sicklepod) [1]; rate 0.0156 kg/ha) | Herbicidal rating CASOB (CASOB (Sicklepod) [1]; rate 0.0625 kg/ha) | Preemergence herbicidal rating CASOB (CASOB (Sicklepod) [3]; 0.0625 kg/ha) | Preemergence herbicidal rating CASOB (CASOB (Sicklepod) [3]; 0.1250 kg/ha) | Preemergence herbicidal rating GLXMAW ([5]; 0.0156 kg/ha) | Preemergence herbicidal rating TRZAWR ([6]; 0.0625 kg/ha)
4.0: Herbicidal rating AMBEL (AMBEL (Ragweed, Common); rate 0.0156 kg/ha) | Herbicidal rating CASOB (CASOB (Sicklepod) [1]; rate 0.1250 kg/ha) | Herbicidal rating GALAP (GALAP (Galium); rate 0.0625 kg/ha) | Herbicidal rating GALAP (GALAP (Galium); rate 0.1250 kg/ha) | Preemergence herbicidal rating CASOB (CASOB (Sicklepod) [3]; 0.2500 kg/ha) | Preemergence herbicidal rating GLXMAW ([5]; 0.1250 kg/ha) | Preemergence herbicidal rating GLXMAW ([5]; 0.2500 kg/ha) | Preemergence herbicidal rating TRZAWR ([6]; 0.2500 kg/ha) | herbicidal effect rating, SAGPY ([7]; 0.0313 kg/ha)
2.0: Herbicidal rating CASOB (CASOB (Sicklepod) [1]; rate 0.0313 kg/ha) | Herbicidal rating GALAP (GALAP (Galium); rate 0.0156 kg/ha) | Preemergence herbicidal rating IPOHE ([4]; 0.0625 kg/ha)
3.0: Herbicidal rating GALAP (GALAP (Galium); rate 0.0313 kg/ha) | Preemergence herbicidal rating IPOHE ([4]; 0.1250 kg/ha) | Preemergence herbicidal rating TRZAWR ([6]; 0.1250 kg/ha) | Preemergence herbicidal rating ZEAMX (ZEAMX (Corn, Field); 0.0625 kg/ha) | Preemergence herbicidal rating ZEAMX (ZEAMX (Corn, Field); 0.1250 kg/ha)
8.0: Preemergence herbicidal rating ECHCG (ECHCG (Barnyardgrass); 0.5000 kg/ha)
5.0: Preemergence herbicidal rating TRZAWR ([6]; 0.5000 kg/ha) | herbicidal effect rating, SAGPY ([7]; 0.0625 kg/ha)
